Test results from patent US8846615B2, “MNTF peptides” (Genervon Biopharmaceuticals, LLC, priority 2008, dated 2014).
No end group written: not given here.

What follows are substances tested on rat spinal motor neurons (assay: in vitro rat motor neuron cell survival assay). Details: 10 μg/mL peptide, medium lacking NTFs; surviving motor neurons as percentage of those surviving with NTFs alone (control); mean ± SD of five samples.
Format: cell-based
Protocol: FIG. 1. Illustrates a survival assay of exemplary MNTF peptides on motor neuron survival. Motor neurons were cultured from rat spinal cords and grown in culture for 3 days in the presence of BDNF, GDNF and CNTF. After 3 days, the cells were grown in the absence of the conventional trophic factors but with the indicated MNTF peptides at 10 microgram/ml. After 48 hours the number of live cells was determined. The graph indicates mean+/−SD of five samples (BDNF=Brain derived neurotrophic factor; GDNF=Glial derived neurotrophic factor; CNTF=Ciliary neurotrophic factor).
Purification and culture of motor neurons. Spinal motor neuron cultures were prepared from E14.5 Sprague-Dawley rats (Charles River Labs). Briefly, dissected spinal cords were digested in 0.025% trypsin (Gibco) for 8 min at 37° C. The tissue was transferred to a solution containing L-15 medium (Gibco) supplemented with 2% horse serum (Gibco), insulin (5 μg/ml); putrescine (1×10^-4 M), conalbumin (100 μg/ml), sodium selenite (3×10^-8 M), progesterone (2×10^-8 M), glucose (3.6 mg/ml), penicillin (100 IU/ml), streptomycin (100 μg/ml), DNAse (100 μg/ml) and bovine serum albumin (BSA; 0.4%). […] The layered suspension was centrifuged at 830×g for 15 min. […] The motor neurons medium consists of neurobasal medium (Gibco) supplemented with B27 supplement (Gibco), glutamate (25 μM), 2-mercaptoethanol (25 μM) and 2% horse serum. The motor neurons were plated onto laminin-coated coverslips at a density of 3000 cells/coverslip unless otherwise stated. A cocktail of neurotrophic factors (NTFs: 1 ng/ml BDNF, 100 pg/ml GDNF, 10 ng/ml CNTF) was added at the time of cell seeding. After 24 h in culture, motor neurons were treated by addition of the different analogs diluted in motor neurons medium lacking NTFs.
Survival assay. Spinal motor neurons were prepared from E14.5 rat embryos as described. Cells were cultured in the presence of NTFs for 24 h and viability (VI) was estimated by counting the number of calcein AM-positive cells. For viability studies, motor neurons were cultured in the absence of NTFs with the addition of the analogs or GM6. The percentage of viable motor neurons was calculated by counting the number of neurons.
Statistical analysis. The number of surviving motor neurons for each treatment was expressed as a percentage of the number of motor neurons surviving in the presence of NTFs alone (control). Five dishes were used for each condition. Differences between treatments were analyzed for their statistical significance by one-way ANOVA with post hoc Tukey's testing.

| Substance | MN survival (% Ctrl) |
| --- | --- |
| FSRYA [compound 2309, 5-mer MNTF peptide, metabolite of the 6mer] | 81.5 ± 4.50 % Ctrl |
| YAR [compound 2310, 3-mer MNTF peptide, metabolite of the 6mer] | 12.26 ± 1.70 % Ctrl |
| SRY [compound 3221, 3-mer MNTF peptide] | 9.08 ± 2.32 % Ctrl |
| RYA [compound 3222, 3-mer MNTF peptide] | 10.64 ± 1.72 % Ctrl |
| SRYAR [compound 2312, 5-mer MNTF peptide, metabolite of the 6mer] | 12.02 ± 2.31 % Ctrl |
| SRYA [compound 3223, 4-mer MNTF peptide] | 15.46 ± 1.82 % Ctrl |
| RYAR [compound 2311, 4-mer MNTF peptide, metabolite of the 6mer] | 9.66 ± 2.50 % Ctrl |
| FSRY [compound 2308, 4-mer MNTF peptide, metabolite of the 6mer] | 66.38 ± 5.86 % Ctrl |
| FSR [compound 2307, 3-mer MNTF peptide, metabolite of the 6mer] | 35.00 ± 5.28 % Ctrl |
| FSRYAR [GM6(GMP014), synthesized 6 amino acid peptide analog of MNTF] | 94.02 ± 3.53 % Ctrl |

Same assay, conditions: 10 μg/ml, culture medium lacking the conventional NTFs

| Substance | trophic effect on motor neuron cell death (in words) |
| --- | --- |
| FSRYAR [GM6(GMP014), synthesized 6 amino acid peptide analog of MNTF] | demonstrated protection from neuronal cell loss |

Same assay, conditions: 10 μg/ml, culture medium lacking the conventional NTFs; listed as GM6

| Substance | trophic effect on motor neuron cell death (in words) |
| --- | --- |
| FSRYAR [GM6(GMP014), synthesized 6 amino acid peptide analog of MNTF] | demonstrated an attenuation of motor neuron cell death |
